From article PMC6814738, “Bacterial MgrB peptide activates chemoreceptor Fpr3 in mouse accessory olfactory system and drives avoidance behaviour” (Nature Communications, 2019)
Where “and” joins values, the source holds several entries; their conditions need not be identical. Equal values may be shown once. Read-outs that look alike come from different tables or passages of the source.

Tests used:
[1] = test system: vomeronasal sensory neurons (VSNs); test: VNO whole-mount en face confocal Ca2+ imaging of VSN dendritic knobs (Fig. 4, 5); type: cell-based, mouse; design: key to Ca2+ response of f-MKKFRW-responsive VSN knobs / Fpeak: normalised to knob resting fluorescence F0 before stimulation
Excerpt: Mice (6–20 week old, either sex) were euthanized by CO2 inhalation according to institutional guidelines. After decapitation, the skin was removed from the skull, the mandible was cut off and the cranium was opened by a sagittal cut, 1–2-mm right-lateral in parallel to the midline. The palate and the right incisor were removed and the hemisected skull was mounted in low-melting agarose (4%). The bony capsule of the VNO was opened with fine forceps and the nonsensory epithelium was stripped off. Tissue and cell debris were gently washed off, and the en face preparation was superfused with physiological S1 solution (120 mM NaCl, 25 mM NaHCO3, 5 mM KCl, 1 mM MgSO4, 1 mM CaCl2, 10 mM glucose, 5 mM BES, pH 7.3) saturated with carbogen (95% O2, 5% CO2).
Loading of the VNE with Rhod-2/AM (5–15 µM, 1 h) was performed in S1 solution under carbogen atmosphere at RT. Images were taken with an upright confocal laser scanning microscope (Leica TCS SP5 II, 20x water immersion objective HCX APO L20x/1.0w) equipped with Ar and He/Ne lasers. GFP was excited at 488 nm, Venus at 514 nm and Rhod-2 at 543 nm. Emission was measured at 490–520 nm (GFP), 520–600 nm (Venus) and 560–680 nm (Rhod-2). To minimise interference between Venus and Rhod-2 fluorescence, images were taken sequentially (sample interval per image, 3–4 s). Peptide stimuli were applied to the VNE surface with a local perfusion system which, when positioned close to the anterior end of the VNO, produced a continuous solution stream from rostral to caudal along the VNO axis. Data analysis was performed with the open source software ImageJ (NIH). Ca^2+ responses of individual dendritic knobs were normalised to the knob resting fluorescence level obtained before stimulation (ratio Fx/F0, Fx = actual fluorescence; F0 = mean fluorescence of 3–5 images before ligand application). Mapping was performed by superimposing Ca^2+ peak images onto images showing intrinsic fluorescence for specific markers.
Predator urine mix was composed of urine from mountain lion, coyote, bobcat, fox and marten (at equal volume ratios), purchased from Predatorpee (USA) and Kieferle (Germany). The fMet peptides were as described above. Stimuli were applied in S2 solution (140 mM NaCl, 5 mM KCl, 10 mM HEPES, 1 mM CaCl2, 1 mM MgCl2, 10 mM glucose, pH 7.3 with NaOH).

male mice = test: Behavioural avoidance test, FEU vs. FEU supplemented with peptide (Fig. 8, Supplementary Fig. 4); type: in vivo, mouse; details: for avoidance, in words: 100 µM, B6 mice (f-MKKFRW also ΔFpr3-lacZ+/+, cGαo+/−, Trpc2+/−); for avoidance index: 100 µM in FEU, mean ± s.e.m.; for Preference (%): group mean value, FEU vs FEU supplemented with 100 µM peptide
Method: These assays were adapted from behavioural procedures described previously[14],[60]. We tested avoidance by giving adult male mice (8–14 week old) of various genotypes a choice to freely investigate two types of chemical stimuli: FEU vs. FEU supplemented with a peptide. Mice were sexually naïve and not exposed to the test stimuli prior to the testing day. Mice were habituated for three days (40 min each day) to clean filter papers (2.5 cm diameter), each deposited in a sterile plastic culture dish and placed in opposite corners of the test cage (30 × 12 cm). After the third habituation period, the test subject was transferred into a new cage containing fresh filter papers/dishes with either of the two test stimuli. One filter paper was impregnated with 45 µl of fresh urine pooled from two sexually naïve female B6 mice (8–16 weeks old) in oestrus (FEU, female oestrous urine) and 5 µl physiological solution containing (in mM): NaCl, 130; KCl, 5; Na-Hepes, 10; CaCl2, 2; glucose, 10; pH = 7.4. For testing the effects of specific peptides, the second filter paper was impregnated with FEU supplemented with a given peptide (100 or 50 µM final concentration, dissolved in physiological solution). Direct physical contact was allowed. Behaviour was recorded for 10 min from the top of the cage. Mice were exposed only once to a given peptide solution, and were exposed to only one peptide stimulus per day. Stimuli were presented in randomised order. […] This investigative behaviour was quantified as the time spent in close contact with each filter paper, scored manually by an observer blind to the experimental conditions using Behavioural Observation Research Interactive Software (BORIS)[85]. Contact time was measured as the time during which the nose crossed the border of a petri dish containing impregnated filter paper. An avoidance index was calculated as (TP — aTU)/(aTP + aTU), with TP as the time an individual mouse investigated a FEU-peptide mixture, aTP as the average time of all tested mice investigating this stimulus and aTU as the average time of all mice investigating FEU without added peptide. Negative values represent avoidance and positive values represent attraction. For analysing investigation of sick conspecifics, B6 mice were injected either with LPS or PBS as described above. In total, 4 h post injection, these mice were anaesthetised with 165 mg/kg ketamine (Pharmacia GmbH, Berlin, Germany) and 11 mg/kg xylazine (Bayer Health Care, Leverkusen, Germany) and then used in behavioural tests.

mouse Fpr3 = details: cited from earlier work
Method: We estimate the fraction of knobs responding to f-MKKFRW as ~0.15%, which is similar to the fraction of cells in the VNE that express Fpr3[30]. Strikingly, the sensitivity and sequence-selectivity profile of these responses was nearly identical to the results that we obtained for heterologously expressed Fpr3. The detection threshold of native VSNs for f-MKKFRW was ≤0.1 µM (Fig. 4f), virtually the same as for Fpr3-expres ... || Given the importance of the olfactory system in a variety of behavioural avoidance and defence mechanisms[14],[62],[63], we reasoned that in vivo detection of MgrB peptide may evoke an avoidance reaction in mice. We devised a behavioural assay[14],[60] in order to determine whether direct nasal contact with MgrB peptide evokes unconditioned, innate avoidance (Fig. 8a and Methods). […] (Fig ... || We used custom-made peptides with a length of 6–21 amino acids to screen for agonists. Sequences of fMet peptides were designed according to motifs present at the N-termini of 15,125 specific bacterial proteins as annotated in UniProt. Peptides were chemically synthesised, purified, and verified by mass spectroscopy (MALDI-TOF) by commercial suppliers. Purity of all peptides was >95%. Source, sequence and purity of each peptide are listed in Supplementary Data 1. Lyophilised peptides were routinely dissolved in the Ca^2+ imaging assay buffer C1 (130 mM NaCl, 10 mM HEPES, 5 mM KCl, 2 mM CaCl2, ...

[2] = B6, n = 10-11, negative = avoidance

MKKFRW [non-formylated MKKFRW peptide]
Fpeak ([1]; Fig. 4h, mean of individual knobs, n = 103 f-MKKFRW, 21 f-MKKFRWVVL, 68 MKKFRW, 26 f-MGFFIS, 63 PUM): 0.00 | Ca2+ responses in VSNs, in words ([1]; VNE of adult B6 mice, f-MKKFRW 1 µM): failed to evoke Ca^2+ responses in VSNs | Ca2+ response of f-MKKFRW-responsive VSN knobs ([1]; adult B6 mice, mean ± s.d., N = 103 (f-MKKFRW), 21 (f-MKKFRWVVL), 68 (MKKFRW), 26 (f-MGFFIS), 63 (PUM), Fig. 4h): 0.00 ± 0.00 | avoidance, in words (male mice): failed to elicit avoidance | avoidance index (male mice; [2]): 0.07 ± 0.05 | Preference Index (male mice; Fig. 8c, individual values, B6 mice): -0.0604 and 0.2531 and -0.1298 and -0.1953 and 0.1497 and 0.2996 and 0.2407 and -0.00533 and -0.09796 and 0.2025 and 0.1402 | Preference Index (male mice; Fig. 8c, mean, B6 mice, n = 11 f-MKKFRW, 11 MKKFRW, 10 f-MGFFIS, 10 f-MEQQNK, FEU control -0.002): 0.07 | Preference Index (male mice; Fig. 8e, individual values, cGao +/-): -0.2952 and -0.1477 and 0.0923 and 0.1621 and -0.0653 and -0.08718 and -0.2984 and 0.512 and -0.2293 and -0.2843 and -0.4122 and -0.3523 | Preference Index (male mice; Fig. 8e, individual values, cGao -/-): -0.00407 and 0.301 and 0.1658 and 0.1525 and 0.9449 and 0.3984 and 0.4927 and 0.2412 and 0.4087 and 0.6592 and -0.3896 and -0.3365 and -0.3471 | Preference Index (male mice; Fig. 8e, mean, cGao +/-, n = 13 f-MKKFRW, 12 MKKFRW, FEU control -0.0358): -0.12 | Preference Index (male mice; Fig. 8e, mean, cGao -/-, n = 13, FEU control 0.15): 0.21 | Preference Index (male mice; Fig. 8f, individual values, Trpc2 +/-): 0.2866 and 0.03638 and -0.02867 and 0.9217 and 0.4878 and -0.4504 and -0.342 and -0.3772 and -0.3362 | Preference Index (male mice; Fig. 8f, individual values, Trpc2 -/-): 1.085 and 1.60E-05 and 0.07163 and 0.2257 and 0.5213 and -0.3383 and -0.4081 and -0.0323 | Preference Index (male mice; Fig. 8f, mean, Trpc2 +/-, n = 12 f-MKKFRW, 9 MKKFRW, FEU control -0.0531): 0.022 | Preference Index (male mice; Fig. 8f, mean, Trpc2 -/-, n = 11 f-MKKFRW, 8 MKKFRW, FEU control -0.10): 0.14 | Preference (%) (male mice; Fig. 8g, ∆Fpr3-lacZ +/+ males, FEU/FEU control -5.85844): 7.718% | Preference (%) (male mice; Fig. 8g, ∆Fpr3-lacZ -/- males, FEU/FEU control 2.58474): 9.878% | Preference (%) (male mice; Fig. 8h, Trpc2 +/- males, FEU/FEU control 0.100694): 6.911% | Preference (%) (male mice; Fig. 8h, Trpc2 -/- males, FEU/FEU control -3.21189): -1.784% | Preference Index (male mice; Fig. 8d, individual values, ∆Fpr3-lacZ +/+): -0.2521 and -0.1287 and 0.07074 and 0.3269 and 0.2942 and 0.3844 | Preference Index (male mice; Fig. 8d, individual values, ∆Fpr3-lacZ -/-): -0.1393 and 0.3319 and 0.8558 and 1.088 and -0.03627 and 0.0259 and -0.07697 and -0.00886 and -0.09833 and -0.1976 and 0.3575 and 0.2784 | Preference Index (male mice; Fig. 8d, mean, ∆Fpr3-lacZ +/+, n = 9 f-MKKFRW, 6 MKKFRW, FEU control -0.06): 0.12 | Preference Index (male mice; Fig. 8d, mean, ∆Fpr3-lacZ -/-, n = 12, FEU control 0.19): 0.20 | avoidance index (male mice; Trpc2 +/−): 0.02 ± 0.16 | avoidance index (male mice; Trpc2 −/−): 0.14 ± 0.17 | avoidance index (male mice; cGαo +/−): −0.12 ± 0.08 | avoidance index (male mice; cGαo −/−, n = 13): 0.21 ± 0.11 | avoidance index (male mice; ∆Fpr3-lacZ +/+): 0.12 ± 0.11 | avoidance index (male mice; ∆Fpr3-lacZ −/−, n = 12): 0.20 ± 0.12

W-peptide [reference compound]
agonism at mouse Fpr3, in words (mouse Fpr3): agonists for mouse Fpr3

f-MFQQNK [reference compound]
activation of heterologously expressed Fpr3, in words (mouse Fpr3): failed to activate heterologously expressed Fpr3 | avoidance, in words (male mice): failed to elicit avoidance | avoidance index (male mice; [2]): 0.04 ± 0.09

f-MLFYFS [signal peptide fragment identified as agonist for mouse Fpr3, reference compound]
agonism at mouse Fpr3, in words (mouse Fpr3; signal peptide fragments): agonists for mouse Fpr3

f-MLFYLA
agonism at mouse Fpr3, in words (mouse Fpr3; signal peptide fragments): agonists for mouse Fpr3
